According to ChEMBL document CHEMBL1201862, “PubChem BioAssay data set” (2004):
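Each compound was tested at five concentrations against cells in 96-well plates for 48 hours. GI50 = concentration required for 50% inhibition of growth.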 Calls of active or inactive are those of the source. Cut-off read from the data, not from the text of the source: active = GI50 up to about 1.1 µM and inactive = higher.

Experiments:
Experiment in all cases: inhibition of tumour cell growth, NCI panel, 48 h
[1] = system: A498
[2] = system: COLO 205
[3] = system: HCC 2998
[4] = system: HOP-92
[5] = system: IGROV-1
[6] = system: K562
[7] = system: KM12
[8] = system: M14
[9] = system: MCF7
[10] = system: NCI-H226
[11] = system: NCI-H522
[12] = system: NCI/ADR-RES
[13] = system: OVCAR-4
[14] = system: OVCAR-5
[15] = system: SF-268
[16] = system: SF-539
[17] = system: SK-MEL-28
[18] = system: SK-MEL-5
[19] = system: SK-OV-3
[20] = system: UACC-257

SMILES	GI50 [1]	GI50 [2]	GI50 [3]	GI50 [4]	GI50 [5]	GI50 [6]	GI50 [7]	GI50 [8]	GI50 [9]	GI50 [10]	GI50 [11]	GI50 [12]	GI50 [13]	GI50 [14]	GI50 [15]	GI50 [16]	GI50 [17]	GI50 [18]	GI50 [19]	GI50 [20]
CN(C)C(=S)/N=c1\ssc(=S)n1Cc1cccs1	4.13 µM (inactive)	2.36 µM (inactive)	6.7 µM (inactive)	5.26 µM (inactive)	4.11 µM (inactive)	2.1 µM (inactive)	3.39 µM (inactive)	3.01 µM (inactive)	1.99 µM (inactive)	13.7 µM (inactive)	0.39 µM (active)	1.08 µM (active)	14.6 µM (inactive)	> 55.3 µM (inactive)	5.45 µM (inactive)	2.55 µM (inactive)	8.41 µM (inactive)	1.04 µM (active)	3.46 µM (inactive)	6.76 µM (inactive)
COc1cc(/C=C2\CCc3cc(OC)c(OC)cc3C2=O)cc(OC)c1	6.82 µM (inactive)	3.28 µM (inactive)	5.3 µM (inactive)	24.3 µM (inactive)	7.35 µM (inactive)	3.03 µM (inactive)	4.88 µM (inactive)	5.47 µM (inactive)	4.2 µM (inactive)	5.04 µM (inactive)	5.93 µM (inactive)	3.15 µM (inactive)	21.4 µM (inactive)	24.2 µM (inactive)	41.2 µM (inactive)	5.38 µM (inactive)	15.8 µM (inactive)	3.87 µM (inactive)	14.2 µM (inactive)	19.7 µM (inactive)
COc1cnc2cc(C(=O)O)c3ccccc3c2c1	> 100 µM (inactive)	> 100 µM (inactive)	> 100 µM (inactive)	> 100 µM (inactive)	> 100 µM (inactive)	> 100 µM (inactive)	> 100 µM (inactive)	92.5 µM (inactive)	> 100 µM (inactive)	> 100 µM (inactive)	> 100 µM (inactive)	> 100 µM (inactive)	> 100 µM (inactive)	> 100 µM (inactive)	> 100 µM (inactive)	> 100 µM (inactive)	> 100 µM (inactive)	> 100 µM (inactive)	> 100 µM (inactive)	> 100 µM (inactive)
Cc1c(Br)c(Br)c(C)[s+]1[O-]	27.4 µM (inactive)	2.57 µM (inactive)	18.4 µM (inactive)	45.9 µM (inactive)	26.7 µM (inactive)	25.6 µM (inactive)	13.8 µM (inactive)	13.4 µM (inactive)	25 µM (inactive)	28.4 µM (inactive)	8.02 µM (inactive)	29 µM (inactive)	26.2 µM (inactive)	18 µM (inactive)	25.2 µM (inactive)	5.38 µM (inactive)	17.6 µM (inactive)	10.4 µM (inactive)	23.8 µM (inactive)	12.2 µM (inactive)
CC(C)(CCc1nc2ccccc2[nH]1)C(=O)O	> 49.2 µM (inactive)	> 100 µM (inactive)	> 100 µM (inactive)	> 100 µM (inactive)	> 100 µM (inactive)	> 28 µM (inactive)	> 100 µM (inactive)	> 100 µM (inactive)	> 100 µM (inactive)	> 100 µM (inactive)	> 100 µM (inactive)	> 100 µM (inactive)	> 100 µM (inactive)	> 100 µM (inactive)	> 100 µM (inactive)	> 100 µM (inactive)	> 100 µM (inactive)	> 100 µM (inactive)	> 100 µM (inactive)	> 100 µM (inactive)
C=C1C(=O)O[C@H]2[C@@H](O)[C@H](C)CCC/C(C)=C/CC[C@@]3(C)O[C@@H]3C[C@@H]12	12.4 µM (inactive)	3.93 µM (inactive)	13.2 µM (inactive)	2.59 µM (inactive)	3.5 µM (inactive)	4.06 µM (inactive)	16.8 µM (inactive)	3.94 µM (inactive)	7.18 µM (inactive)	1.53 µM (inactive)	2.68 µM (inactive)	6.43 µM (inactive)	7.16 µM (inactive)	15.7 µM (inactive)	8.22 µM (inactive)	2.59 µM (inactive)	13.7 µM (inactive)	11.8 µM (inactive)	18.5 µM (inactive)	9.16 µM (inactive)
O=C(O)CN(CC(=O)O)Cc1cc(C#Cc2ccc(C#Cc3ccccc3)cc2)cc(CN(CC(=O)O)CC(=O)O)n1	40.6 µM (inactive)	11.5 µM (inactive)	4.63 µM (inactive)	22.9 µM (inactive)	18.7 µM (inactive)	33 µM (inactive)	16.8 µM (inactive)	22.9 µM (inactive)	16.5 µM (inactive)	12.2 µM (inactive)	17.2 µM (inactive)	12.7 µM (inactive)	10.2 µM (inactive)	26.4 µM (inactive)	12.2 µM (inactive)	20.7 µM (inactive)	> 52 µM (inactive)	27.3 µM (inactive)	56 µM (inactive)	40.8 µM (inactive)
COc1ccc(NC(=S)N/N=C(\c2ccccc2)c2ccccn2)cc1	0.587 µM (active)	< 0.01 µM (active)	2.42 µM (inactive)	0.224 µM (active)	< 0.01 µM (active)	< 0.01 µM (active)	0.0479 µM (active)	0.0117 µM (active)	< 0.01 µM (active)	0.0753 µM (active)	0.0552 µM (active)	< 0.0904 µM (active)	0.7 µM (active)	0.0241 µM (active)	0.123 µM (active)	0.348 µM (active)	2.56 µM (inactive)	0.0432 µM (active)	0.028 µM (active)	< 0.01 µM (active)
Cc1cnc2c(c1)C(=O)C1=C(C2=O)C2OC(=O)CC2OC1(C)C (stereo not given)	1.83 µM (inactive)	0.0462 µM (active)	0.248 µM (active)	0.121 µM (active)	0.179 µM (active)	0.0209 µM (active)	0.431 µM (active)	0.254 µM (active)	0.0533 µM (active)	0.979 µM (active)	0.0525 µM (active)	0.625 µM (active)	0.159 µM (active)	0.301 µM (active)	0.223 µM (active)	0.237 µM (active)	0.684 µM (active)	0.317 µM (active)	1.35 µM (inactive)	0.198 µM (active)
O=c1[nH]n(Cc2ccccc2CCl)c2ccc([N+](=O)[O-])cc12	62.2 µM (inactive)	26.1 µM (inactive)	21.7 µM (inactive)	34.5 µM (inactive)	> 100 µM (inactive)	42.4 µM (inactive)	49.5 µM (inactive)	39.2 µM (inactive)	29.8 µM (inactive)	93.5 µM (inactive)	22.9 µM (inactive)	29.9 µM (inactive)	37.1 µM (inactive)	> 100 µM (inactive)	35.3 µM (inactive)	58.3 µM (inactive)	34.5 µM (inactive)	13.4 µM (inactive)	27.7 µM (inactive)	64.4 µM (inactive)
COc1cccc(/N=C/c2cc(OC)c(OC)c(OC)c2)c1	> 100 µM (inactive)	17.8 µM (inactive)	> 88.9 µM (inactive)	> 100 µM (inactive)	> 100 µM (inactive)	3.58 µM (inactive)	33.2 µM (inactive)	36.2 µM (inactive)	56.9 µM (inactive)	> 54.8 µM (inactive)	> 100 µM (inactive)	> 100 µM (inactive)	> 79.6 µM (inactive)	> 53.2 µM (inactive)	> 100 µM (inactive)	> 100 µM (inactive)	> 75.7 µM (inactive)	16.8 µM (inactive)	> 100 µM (inactive)	> 100 µM (inactive)
O=C(NCCc1ccccc1)c1cc(/C=C/c2cc(O)ccc2O)ccc1O	4.4 µM (inactive)	5.61 µM (inactive)	10.1 µM (inactive)	1.87 µM (inactive)	3.03 µM (inactive)	2.59 µM (inactive)	6.05 µM (inactive)	5.56 µM (inactive)	2.62 µM (inactive)	9.66 µM (inactive)	1.64 µM (inactive)	3.43 µM (inactive)	2.27 µM (inactive)	8.69 µM (inactive)	3.19 µM (inactive)	2.38 µM (inactive)	3.08 µM (inactive)	2.74 µM (inactive)	13 µM (inactive)	2.64 µM (inactive)
C/C(=N/NC(=S)Nc1cccc(C)c1)c1ccccn1	1.56 µM (inactive)	< 0.01 µM (active)	1.91 µM (inactive)	1.17 µM (inactive)	< 0.01 µM (active)	< 0.01 µM (active)	0.141 µM (active)	< 0.013 µM (active)	< 0.01 µM (active)	0.0582 µM (active)	0.238 µM (active)	< 0.01 µM (active)	1.98 µM (inactive)	0.0392 µM (active)	0.21 µM (active)	1.57 µM (inactive)	1.71 µM (inactive)	0.061 µM (active)	0.025 µM (active)	< 0.01 µM (active)
Cn1c2ccccc2c2c3c(=O)[nH][nH]c(=O)c3c3c4ccccc4n(C)c3c21	> 100 µM (inactive)	> 89.1 µM (inactive)	> 100 µM (inactive)	> 100 µM (inactive)	> 100 µM (inactive)	58.5 µM (inactive)	30.1 µM (inactive)	> 84.5 µM (inactive)	0.133 µM (active)	> 100 µM (inactive)	1.09 µM (active)	> 58.2 µM (inactive)	> 64.3 µM (inactive)	> 100 µM (inactive)	> 100 µM (inactive)	> 100 µM (inactive)	> 100 µM (inactive)	> 100 µM (inactive)	> 100 µM (inactive)	> 100 µM (inactive)
